Experimental data published in patent US20260274910A1, “SINGLE FUSION PROTEIN AND PHARMACEUTICAL COMPOSITION” (MEDI&GENE INC., priority 2023, published 2026).

What was measured:
[1] = test system: sciatic nerve transection mouse model; assay: Sciatic nerve transection muscle atrophy model; type: in vivo, C57BL/6 male mice; conditions: versus control; for Grip strength: 5.0 mg/kg subcutaneous 6 times a week for 9 weeks; for Muscle mass (DXA assay): 5.0 mg/kg subcutaneous 6 times a week, fourth week
Method: The effects of the test substances on muscle diseases accompanied by muscle loss were evaluated using a sciatic nerve transection mouse model.
In the sciatic nerve transection mouse model, muscle atrophy was induced as follows. The thigh muscles of C57BL/6 male mice were transversely incised to expose sciatic nerves, and then the sciatic nerves were transected to weaken the nerves in the muscle tissue and induce muscle atrophy. The incised site was sutured, and a recovery period of one week was provided after the surgery.
To each mouse after the recovery period, the test substance (Control-PBS; and fusion protein) assigned to each group was subcutaneously injected at a concentration of 5.0 mg/kg 6 times a week for 9 weeks (Control: n=8, No. 13: n=9, No. 14: n=9, No. 15: n=8). The effects of improving muscle loss were measured with an X-ray body composition analyzer (DXA assay) in the fourth week of test substance administration, and the effects of improving muscle function was compared by measuring grip strength.

[2] = test system: 3T3-L1 adipocytes; assay: Lipid droplet analysis (BODIPY 493/503, confocal) in 3T3-L1 adipocytes; type: cell-based, mouse; conditions: differentiated 3T3-L1 adipocytes, 100 nM, 30 hours
Method: (§1) To observe the functionality of the fusion proteins related to lipid metabolism, the 3T3-L1 mouse pre-adipocyte cell line was used as the cell line itself (undifferentiated) or by differentiating into adipocytes. Differentiation into the adipocytes was performed by inducing primary differentiation for the 3T3-L1 cells in a medium containing DMEM, 10% FBS, 10 μg/ml insulin, 0.5 mM IBMX (3-Isobutyl-1-methylxanthine), and 1 μM dexamethasone for 2 days, and inducing secondary differentiation with a medium containing DMEM, 10% FBS, and 10 μg/ml insulin for the remaining 4 days. The adipocytes in which differentiation was finally completed were treated with the test substances at a concentration of 100 nM for 30 hours (Control: PBS) and then used for each test.
In addition, lipid droplets of adipocytes were stained with BODIPY 493/503 dye sample, and then confocal image scanning was performed to analyze the size and diameter of the lipid droplets.

[3] = test system: plasma proteins; assay: Plasma protein binding test (PPB); type: in vitro ADME, mice; conditions: mouse plasma, 5 uM, 37° C., 4 hours, 100 kD filter, western blot
Method: Such an increase in half-life was further confirmed by measuring plasma protein binding rates (Plasma protein binding test, PPB). […] Each of the plasma of the mice and the fusion protein (SEQ ID NO: 13), and or His tag-wild-type substance (1-81) (SEQ ID NO: 5) was incubated at a concentration of 5 uM at 37° C. for 4 hours. After that, they were centrifuged with a 100 kD filter to obtain fractions of the substance bound to the plasma proteins or fractions of the unbound substance. Each of the obtained fractions was evaluated by western blot.

[4] = Half-life in mice, NIR dye-conjugated substance, plasma fluorescence
Method: For evaluation, ten-week-old C57BL/6 mice were used, and the mice were reared in a specialized animal facility which provided a normal diet and a 12/12 hour night/day cycle and then used for experimentation.
The synthetic peptide (SEQ ID NO: 8) and fusion protein (SEQ ID NO: 13) were each injected into the mice at a concentration of 2.5 mg/kg, and blood was collected at 0, 0.5, 2, 4, 24 hours after injection. The collected blood was centrifuged and the obtained plasma was analyzed. At this time, in order to perform effective quantification of the substances, each substance was conjugated with Dylight 680 Near-Infrared dye (NIR) in advance prior to injection, and the finally collected blood samples were examined by observing fluorescent signals with a SpectraMax i3 microplate reader device.

[5] = test system: UCP-1 (uncoupling protein 1); assay: UCP-1 expression (RT-PCR) in differentiated 3T3-L1 adipocytes; type: cell-based, mouse; conditions: 100 nM, 30 hours
Method: as §1
UCP-1 (uncoupling protein 1) is a representative biomarker related to thermogenesis, indicating browning and energy metabolism activation of adipocytes. In order to observe changes in expression of UCP-1 mRNA and protein by treatment of the fusion proteins, mRNA and protein were isolated from the cells treated with each test substance and RT-PCR and western blot were performed.

[6] = test system: cAMP (cyclic AMP); assay: cAMP level (hTRF) in undifferentiated 3T3-L1 cells; type: cell-based, mouse; conditions: undifferentiated 3T3-L1, 100 nM with 0.5 mM IBMX, 30 minutes; compared with Control and SEQ ID NO: 5
Method: as §1
Next, changes in cAMP (cyclic AMP), a signaling mediator contributing to lipolysis and energy metabolism were evaluated in the undifferentiated adipocytes. The undifferentiated cells were treated with the test substances at a concentration of 100 nM (Control: PBS) with 0.5 mM IBMX for 30 minutes. Thereafter, the level of cAMP was evaluated by the hTRF (Homogeneous Time Resolved Fluorescence) method (using CAMP Gs dynamic kit from Cisbio). As a result of the measurement, it was confirmed that the level of cAMP was higher in the groups treated with the fusion proteins (SEQ ID NOs: 1, 2, 3, 7, 13, 14, 15) and shortened sequences (sequences 9, 10, 11) compared with the Control and His tag-wild-type substance (1-81) (SEQ ID NO: 5) (FIG. 7).

[7] = test system: MDA-MB-231 cell line; assay: Reactive oxygen generation (DCF-FA) in breast cancer cells; type: cell-based; conditions: 1 μM, 24 hours; compared with Control and SEQ ID NO: 5
Method: In addition, in order to examine generation of reactive oxygen that plays an important role in cancer cell death, each test substance was treated to the MDA-MB-231 cell line at a concentration of 1 μM (Control: PBS) for 24 hours. Then, the cells were stained with DCF-FA and their fluorescence values were observed and compared at 485/535 nm.

[8] = test system: follicular cells (dermal papilla cells); assay: Follicular cell proliferation by MTT assay; type: cell-based; conditions: 100 nM, 24 hours; compared with Control (PBS)
Method: Whether the test substances of the present invention has effects on preventing hair loss or promoting hair growth was evaluated as follows. Specifically, it was observed whether they have efficacy of improving loss of follicular cells in scalp tissue which is a cause of hair loss, or hair growth due to an increase in hair follicles, by using dermal papilla cells and evaluating cell proliferation of follicular cells.
The follicular cells were treated with each test substance 100 nM (control: PBS) for 24 hours, and the degree of cell proliferation was evaluated by MTT assay.

[9] = test system: Akt and S6 (phosphorylation, p-Akt/p-S6) in C2C12 mouse skeletal muscle cell line; assay: Akt and S6 phosphorylation (western blot) in C2C12 muscle cells; type: cell-based; conditions: 2 hours
Method: In order to evaluate functions related to muscle loss diseases, each test substance was treated to the undifferentiated C2C12 mouse skeletal muscle cell line (mouse myoblast cell line) or the cell line in which differentiation into myotubes was completed. Differentiation of the cell line into myotubes was performed by conducting addition of 2% horse serum to culture medium and replacement with new medium every two days for a total of 4 days.
To the undifferentiated or differentiated cell lines, the test substances, fusion proteins (SEQ ID NOs: 1, 2, 3, 7, 14 and 15) were treated at a concentration of 100 nM (Control: PBS treated group) for 2 hours. Thereafter, the cells were immediately washed once and the cells were lysed with RIPA buffer (Radioimmunoprecipitation assay buffer). The activity of Akt and S6 (phosphorylation, p-Akt/p-S6) was observed by western blot. Akt phosphorylation is a well-known marker of activation of cell signaling pathways, and is an indicator of beneficial effects on muscle cells such as promotion of glucose metabolism and promotion of muscle biosynthesis. Similarly, S6 phosphorylation is a well-known marker of mTOR activity, and the activity of mTOR is an indicator showing muscle biosynthesis and various cell signaling pathways.

[10] = test system: MDA-MB-231 triple-negative breast cancer cell line; assay: MTT cell viability in breast cancer cells; type: cell-based; conditions: 1 μM, 48 hours; compared with Control (PBS), SEQ ID NO: 4 and SEQ ID NO: 5
Method: Next, the test substances, the fusion proteins (SEQ ID NO: 1, 2, 3, 7, 14, 15) and shortened sequences (SEQ ID NOs: 9, 10, 11, 12) were treated to MDA-MB-231 triple-negative breast cancer cell line at a concentration of 1 μM (Control: PBS) for 48 hours. Thereafter, the cells were washed with PBS once, and the cells were suspended in serum-free buffer. The MTT (3-[4,5-dimethylthiazol-2-yl]-2,5-diphenyltetrazolium bromide) substance was added thereto at 0.5 mg/ml and incubated at 37° C. for 2 hours. Then, they were washed with PBS once, and the cells were lysed with DMSO for 15 minutes. The solution was transferred to a new plate and the absorbance was measured at 590 nm using a microplate reader.

[11] = test system: diet-induced obesity-induced impaired glucose tolerance mice; assay: Diet-induced obesity-induced impaired glucose tolerance model (glucose tolerance test); type: in vivo, C57BL/6N mice; conditions: 5.0 mg/kg 1 hour before intraperitoneal 20% glucose, after 8 hours fasting
Method: In order to secure an impaired glucose tolerance model, conditions causing glucose metabolic disorders in mice by diet-induced obesity were designed. As an animal model, 5-week-old male C57BL/6N mice were obtained and after undergoing an acclimation period by providing a normal diet for 1 week, they were used, and the housing conditions were maintained at 18~24° C., 50~60% humidity, and ad libitum feeding with free access to feed and water was carried out during both the acclimation period and experimental period.
In order to induce impaired glucose tolerance to the mice which had undergone the acclimation period of 1 week, a high-fat diet was supplied to induce obesity. The high-fat diet was provided by preparing as Table 10 below.
The obesity-induced mice were divided into a control group (negative control group; n=14) and an experimental group (fusion protein SEQ ID NOs: 14, 15; No. 14: n=9, No. 15: n=9) and subjected to fasting for 8 hours. Thereafter, PBS to the control, and the fusion protein to the experimental group were administered at a concentration of 5.0 mg/kg, and after 1 hours, a 20% glucose solution was intraperitoneally injected. Blood was collected at each time point and analyzed using a glucometer.

[12] = Table 6, C2C12, 100 nM, differentiation state not given

Row | Substance | Grip strength [1] | Muscle mass (DXA assay) [1] | Lipid droplet size [2] | Maximum lipid droplet diameter per cell [2] | Total lipid droplet area [2] | Binding rate with the plasma proteins [3] [%] | Half-life increase of fusion protein versus synthetic peptide (SEQ ID NO: 8) ([4]; 2.5 mg/kg) | Half-life ([4]; injected at 2.5 mg/kg, Dylight 680 NIR-conjugated, plasma at 0, 0.5, 2, 4, 24 hours) [h] | mRNA level of UCP-1 [5] | Level of cAMP [6] | Reactive oxygen generation [7] | Cell viability (MTT, cell proliferation) [8] | Activity (% increase compared to control) Akt [9, 12] [%] | Activity (% increase compared to control) S6 [9, 12] [%] | Activity of Akt and S6 compared with control and His tag-wild-type substance (SEQ ID NO: 5) ([9]; differentiated cell line, 100 nM) | Cell viability (MTT) [10] | Blood glucose variation over time (GLUAUC) compared with the control group [11]
1 | SEQ ID NO: 13: Recombinant protein: Wild-type substance (1-81)-Shortened linker-Fc fusion | higher performance | significantly increased | reduced at a significant level | reduced at a significant level | reduced at a significant level | 74 | approximately 11.8 times | 18.9 | significantly increased | higher | generated higher | significantly increased | – | – | – | – | –
2 | SEQ ID NO: 15: Recombinant protein: Shortened substance (1-47)-Shortened linker-Fc fusion | higher performance | significantly increased | – | – | – | – | – | – | – | higher | generated higher | significantly increased | 548 | 232 | significantly higher activity | significantly low | significant difference
